Source: US8101603B2, “Tyrosine kinase inhibitors” (Merck Sharp & Dohme Corp., priority 2006, dated 2012)

target: T1, human c-Met (Homo sapiens, UniProt P08581); assay: In vitro c-Met kinase assay (homogeneous time-resolved fluorescence); assay type: biochemical; conditions: recombinant GST-tagged c-Met cytosolic domain, 50 μM MgATP, HTRF
T1 construct: Recombinant GST-tagged cytosolic domains of human c-Met; 6xHis; made in house; host or cells: Sf9 or Sf21 insect cells (baculovirus, Pharmingen pGcGHLT vector)
T1 sequence (P08581 956-1390 limits assumed): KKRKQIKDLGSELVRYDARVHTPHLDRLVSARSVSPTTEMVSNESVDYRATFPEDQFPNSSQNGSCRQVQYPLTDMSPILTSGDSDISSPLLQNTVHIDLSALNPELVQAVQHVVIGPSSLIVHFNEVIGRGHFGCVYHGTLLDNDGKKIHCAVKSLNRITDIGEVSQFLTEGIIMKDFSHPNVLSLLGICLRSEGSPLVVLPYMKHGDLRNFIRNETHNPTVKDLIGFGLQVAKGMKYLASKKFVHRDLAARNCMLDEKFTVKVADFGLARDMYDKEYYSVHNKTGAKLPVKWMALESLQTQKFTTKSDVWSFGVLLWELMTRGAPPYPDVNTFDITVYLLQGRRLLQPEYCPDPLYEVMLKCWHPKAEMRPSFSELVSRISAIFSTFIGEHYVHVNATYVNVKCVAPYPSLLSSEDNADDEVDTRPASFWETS
Excerpt: Recombinant GST-tagged cytosolic domains of human c-Met and other receptor tyrosine kinases including mouse c-Met, human Ron, KDR, IGFR, EGFR, FGFR, Mer, TrkA and Tie2 are used to determine whether the compounds of the instant invention modulate the enzymatic activities of these kinases.
Soluble recombinant GST-tagged cytosolic domains of c-Met and other receptor tyrosine kinases are expressed in a baculovirus system (Pharmingen) according to a protocol recommended by the manufacturer. The c-DNA encoding each cytosolic domain is subcloned into a baculovirus expression vector (pGcGHLT-A, B or C, Pharmingen) containing an in frame 6× histidine tag and a GST tag. The resulting plasmid construct and BaculoGold baculovirus DNA (Pharmingen) are used to co-transfect Sf9 or Sf21 insect cells. After confirming expression of GST-tagged kinase fusion, a high titer recombinant baculovirus stock is produced, expression conditions are optimized, and a scaled up expression of rat KDR-GST fusion is performed. The fusion kinase is then purified from the insect cell lysate by affinity chromatography using glutathione agarose (Pharmingen). The purified protein is dialyzed against 50% glycerol, 2 mM DTT, 50 mM Tris-HCl (pH 7.4) and stored at −20° C. The protein concentrations of the fusion proteins are determined using Coomassie Plus Protein Assay (Pierce) with BSA as standard.
The procedure for determining the potency of a compound to inhibit c-Met kinase comprises the following steps: • 1. Prepare 3-fold serial diluted compound solutions in 100% dimethyl sulfoxide (DMSO) at 20× of the desired final concentrations in a 96 well plate. • 2. […] In a black assay plate, add 2.5 μl of compound solution (or DMSO) and 37.5 μl of master reaction mix per well. Initiate the kinase reaction by adding 10 μl of 0.25 mM MgATP per well. Allow the reactions to proceed for 80 min at room temperature. The final conditions for the reaction are 0.2 nM c-Met, 0.5 μM substrate, 50 μM MgATP, 5 mM MgCl2, 100 mM NaCl, 2 mM DTT, 0.1 mg/ml BSA, 50 mM Tris (pH 7.4) and 5% DMSO. • 4. […] Read HTRF signals on a Victor reader (PerkinElmer) in HTRF mode after 60 min. • 6.

Compound | IC50 [µM]
CN(C)S(=O)(=O)C(F)(F)c1ccc2ccc3ncc(-c4cnn(C)c4)cc3c(=O)c2c1 [Compound 4-1, 1,1-Difluoro-N,N-dimethyl-1-[3-(1-methyl-1H-pyrazol-4-yl)-5-oxo-5H-benzo[4,5]cyclohepta[1,2-b]pyridin-7-yl]methanesulfonamide] | ≤ 50
Cn1cc(-c2cnc3ccc4ccc(CS(=O)(=O)Nc5cccnc5)cc4c(=O)c3c2)cn1 [Compound 5-5, 1-[3-(1-methyl-1H-pyrazol-4-yl)-5-oxo-5H-benzo[4,5]cyclohepta[1,2-b]pyridin-7-yl]-N-pyridin-3-ylmethanesulfonamide] | ≤ 50
CC(c1ccc2ccc3ncc(-c4cnn(C)c4)cc3c(=O)c2c1)S(=O)(=O)N(C)c1ccccc1 (stereo not shown) [Compound 7-1, N-methyl-1-[3-(1-methyl-1H-pyrazol-4-yl)-5-oxo-5H-benzo[4,5]cyclohepta[1,2-b]pyridin-7-yl]-N-phenylethanesulfonamide] | ≤ 50
CN(C)S(=O)(=O)C(F)c1ccc2ccc3ncc(-c4cnn(C)c4)cc3c(=O)c2c1 (stereo not shown) [Compound 4-2, 1-Fluoro-N,N-dimethyl-1-[3-(1-methyl-1H-pyrazol-4-yl)-5-oxo-5H-benzo[4,5]cyclohepta[1,2-b]pyridin-7-yl]methanesulfonamide] | ≤ 50
